Read-outs that look alike come from different tables or passages of the source.
What was measured:
hDGKalpha(1-735)-N-His = hDGKalpha(1-735)-N-His (Homo sapiens (Human), UniProt P23743); test: DGKalpha ADP Glo assay (in vitro DGK inhibition); assay type: biochemical; conditions: DLG 125 uM, ATP 25 μM, DGK α 4 nM, 1 hour reaction
Description: (§1) DGK α and ζ kinase use ATP to phosphorylate the substrate 1,2-dilauroyl-sn-glycerol (DLG, incorporated in the liposomes). ATP is converted to ADP as a result of this enzymatic reaction. After the kinase reaction, an ATP-depletion reagent is added to terminate the kinase reaction and deplete any remaining ATP, leaving only ADP. Second, a detection reagent is added to simultaneously convert ADP to ATP and allow the newly synthesized ATP to be converted to light using a coupled luciferase/luciferin reaction.
(§2) Purification of both enzymes was performed as previously described by Takahashi et al., PeerJ, 2018 (Takahashi, D.; Sakane, F. Expression and purification of human diacylglycerol kinase alpha from baculovirus-infected insect cells for structural studies. PeerJ 2018, 6, No. e5449).
(§3) A concentrated liposome solution was prepared in assay buffer without DTT and BSA: 2 mM of DLG in 21 mM of total liposome (2 mM DLG/8 mM PS/11 mM PC). […] The reactions were started by addition of DGK α and ζ kinases at 4 nM and 2 nM final concentrations, respectively. After 1 hour reaction, the amount of ADP formed was detected with the ADP-Glo kinase assay (Promega) according to the manufacturer instructions. Compounds were added in 11-points dose response, starting at […], 1:3 dilutions, with a final DMSO concentration of 2%. The multidrop combi was used as a liquid handler and luminescence was read with 0.5 s by the envision reader (PE).

hDGKzeta(1-928)-N-His = hDGKzeta(1-928)-N-His (Homo sapiens (Human), UniProt Q13574); test: DGKzeta ADP Glo assay (in vitro DGK inhibition); assay type: biochemical; conditions: DLG 125 uM, ATP 50 μM, DGK ζ 2 nM, 1 hour reaction
Chain of hDGKzeta(1-928)-N-His (Q13574 whole entry): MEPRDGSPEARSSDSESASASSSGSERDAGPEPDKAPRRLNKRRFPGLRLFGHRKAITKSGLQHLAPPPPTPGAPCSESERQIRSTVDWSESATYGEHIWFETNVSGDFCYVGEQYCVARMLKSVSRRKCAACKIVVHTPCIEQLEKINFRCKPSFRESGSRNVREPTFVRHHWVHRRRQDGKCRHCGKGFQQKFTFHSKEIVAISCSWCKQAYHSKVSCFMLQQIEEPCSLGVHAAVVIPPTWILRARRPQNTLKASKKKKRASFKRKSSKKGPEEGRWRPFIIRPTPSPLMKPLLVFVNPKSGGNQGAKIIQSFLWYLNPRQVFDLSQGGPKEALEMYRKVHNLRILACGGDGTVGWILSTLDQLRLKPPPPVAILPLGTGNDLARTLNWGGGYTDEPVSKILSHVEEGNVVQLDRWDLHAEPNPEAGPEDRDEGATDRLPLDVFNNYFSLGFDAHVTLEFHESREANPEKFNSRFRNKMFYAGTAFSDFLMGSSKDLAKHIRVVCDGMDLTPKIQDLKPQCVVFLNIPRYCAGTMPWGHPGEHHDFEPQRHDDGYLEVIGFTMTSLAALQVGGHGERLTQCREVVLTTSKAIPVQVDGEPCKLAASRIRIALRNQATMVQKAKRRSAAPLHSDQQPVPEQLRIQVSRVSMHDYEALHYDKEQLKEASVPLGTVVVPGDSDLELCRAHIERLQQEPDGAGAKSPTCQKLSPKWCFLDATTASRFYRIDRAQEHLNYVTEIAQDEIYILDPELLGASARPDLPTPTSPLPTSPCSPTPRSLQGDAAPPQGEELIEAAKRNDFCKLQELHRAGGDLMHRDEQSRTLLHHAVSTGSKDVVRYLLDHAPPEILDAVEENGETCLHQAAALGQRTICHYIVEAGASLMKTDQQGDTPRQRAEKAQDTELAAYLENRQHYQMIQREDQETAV
Description: as §1, §2, §3

primary human T-cells [1] = test: Proliferation assay after 5 days (CellTiter-Glo, CD3 stimulation; PBS counter screen); assay type: cell-based; conditions: CD3 stimulation; for Emax proliferation (% activation) / Emax: 5 days, normalized to reference compound A1 as stimulator control = 100%, DMSO neutral control; for EC50: primary human T-cells, CellTiter-Glo after 5 days, EC50 of fitted sigmoidal curve, read-out: Tcell Proliferation CD3 EC50; for Emax: read-out: Emax proliferation (% activation)
Summary of the method: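 After compound addition to medium-only plates, cells are cultured 5 days, equilibrated to room temperature, mixed with an equal volume of CellTiter-Glo 2.0 and rocked 15 min before luminescence is read. Signal reflects ATP content, taken as proportional to cell number.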

primary human T-cells [2] = test system: primary human T-cells
MV-3 cells = test: T-cell - TCB - MV3 killing assay (MCSP-TCB, RFP object count by Incucyte); assay type: cell-based, human; conditions: 5 d; for Emax: normalized: MCSP-TCB only = neutral control, 20 μM reference compound A1 = 100%, read-out: MSCP TCB killing MV-3 cells 5 d Emax; for EC50: primary human T-cells + MCSP-TCB, MV-3 RFP cells, read-out: MSCP TCB killing MV-3 cells 5 d EC50

Chain of hDGKalpha(1-735)-N-His (P23743 whole entry): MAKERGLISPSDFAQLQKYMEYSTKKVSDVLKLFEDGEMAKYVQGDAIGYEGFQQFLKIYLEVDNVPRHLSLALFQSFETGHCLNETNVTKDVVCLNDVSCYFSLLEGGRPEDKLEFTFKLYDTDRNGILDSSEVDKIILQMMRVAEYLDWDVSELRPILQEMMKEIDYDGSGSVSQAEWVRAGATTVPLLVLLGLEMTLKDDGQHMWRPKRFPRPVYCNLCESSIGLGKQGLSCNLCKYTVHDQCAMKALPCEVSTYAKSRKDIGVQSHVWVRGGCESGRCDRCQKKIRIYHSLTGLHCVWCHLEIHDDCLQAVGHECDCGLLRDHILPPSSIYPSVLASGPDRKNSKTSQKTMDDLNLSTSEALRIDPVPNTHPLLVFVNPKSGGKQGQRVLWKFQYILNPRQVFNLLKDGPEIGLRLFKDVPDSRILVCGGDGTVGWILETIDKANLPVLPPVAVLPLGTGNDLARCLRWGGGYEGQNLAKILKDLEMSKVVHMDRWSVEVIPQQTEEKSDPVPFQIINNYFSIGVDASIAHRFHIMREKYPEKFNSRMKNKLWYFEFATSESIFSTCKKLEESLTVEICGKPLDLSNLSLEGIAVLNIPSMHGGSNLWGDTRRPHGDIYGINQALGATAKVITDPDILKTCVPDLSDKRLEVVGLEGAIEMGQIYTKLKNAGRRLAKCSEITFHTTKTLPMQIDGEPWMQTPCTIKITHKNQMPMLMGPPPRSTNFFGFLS

| IC50 (hDGKalpha(1-735)-N-His) | IC50 (hDGKzeta(1-928)-N-His) | EC50 (primary human T-cells [2]) | SMILES | Emax proliferation (% activation) (primary human T-cells [1]) | EC50 (primary human T-cells [1]) | Emax (primary human T-cells [1]; Homo sapiens, T-cell, 120 h) | Emax (MV-3 cells; Homo sapiens, MV-3, 120 h) | EC50 (MV-3 cells) | EC50 (primary human T-cells [1]; Homo sapiens, T-cell, 120 h) | EC50 (MV-3 cells; Homo sapiens, MV-3, 120 h) |
| --- | --- | --- | --- | --- | --- | --- | --- | --- | --- | --- |
| 2140 nM | 52 nM | 3270 nM | N[C@H]1C[S+]([O-])c2cc(F)c(-c3noc(N4CCOC(C(F)(F)F)C4)n3)cc2N(Cc2ccc(Cl)cc2)C1=O (single isomer, unassigned; epimer a) [Example 213] | 222 % activation | 1390 nM | – | – | – | – | – |
| 2640 nM | 147 nM | 5250 nM | N[C@H]1C[S+]([O-])c2cc(F)c(-c3noc(N4CCOC5CC54)n3)cc2N(Cc2ccc(Cl)cc2)C1=O (single isomer, unassigned; epimer b) [Example 208] | 106 % activation | 5310 nM | – | – | – | – | – |
| 343 nM | 207 nM | – | CC(C)Oc1ccc(CN2C(=O)[C@@H](N)CS(=O)(=O)c3cc(F)c(-c4noc(C5CN(C)CC(F)(F)C5)n4)cc32)cc1 (stereo partly drawn) [Example 345, (3R)-3-amino-7-[5-(5,5-difluoro-1-methyl-3-piperidyl)-1,2,4-oxadiazol-3-yl]-8-fluoro-5-[(4-isopropoxyphenyl)methyl]-1,1-dioxo-2,3-dihydro-1λ^6,5-benzothiazepin-4-one] | – | – | 152% | – | – | – | – |
| – | – | 446 nM | N[C@H]1CS(=O)(=O)c2ccc(-c3nnc(NC4CCCC(F)(F)C4)o3)cc2N(Cc2ccc(Cl)cc2)C1=O (stereo partly drawn) [Example 401, (3R)-3-amino-5-[(4-chlorophenyl)methyl]-7-[5-[(3,3-difluorocyclohexyl)amino]-1,3,4-oxadiazol-2-yl]-1,1-dioxo-2,3-dihydro-1λ^6,5-benzothiazepin-4-one] | – | – | 69% | 92% | 1540 nM | 1130 nM | – |
| 2870 nM | 795 nM | – | N[C@H]1CS(=O)(=O)c2ccc(-c3nnc(N4CCOC(C(F)F)C4)o3)cc2N(Cc2ccc(Cl)cc2)C1=O (stereo partly drawn) [Example 409, (3R)-3-amino-5-[(4-chlorophenyl)methyl]-7-[5-[2-(difluoromethyl)morpholin-4-yl]-1,3,4-oxadiazol-2-yl]-1,1-dioxo-2,3-dihydro-1λ^6,5-benzothiazepin-4-one] | – | – | 95% | – | – | 3880 nM | – |
| – | – | 1400 nM | CC(C)(C)c1nnc(-c2ccc3c(c2)N(Cc2ccc(C(C)(C)C#N)cc2)C(=O)[C@@H](N)CS3(=O)=O)o1 [Example 437, 2-[4-[[(3R)-3-amino-7-(5-tert-butyl-1,3,4-oxadiazol-2-yl)-1,1,4-trioxo-2,3-dihydro-1λ^6,5-benzothiazepin-5-yl]methyl]phenyl]-2-methyl-propanenitrile] | – | – | 112% | 88% | – | 698 nM | 340 nM |
| – | – | 153 nM | CN1CC(c2nnc(-c3cc4c(cc3F)S(=O)(=O)C[C@H](N)C(=O)N4Cc3ccc(Cl)cc3)o2)CC(F)(F)C1 (stereo partly drawn) [Example 451, (3R)-3-amino-5-[(4-chlorophenyl)methyl]-7-[5-(5,5-difluoro-1-methyl-3-piperidyl)-1,3,4-oxadiazol-2-yl]-8-fluoro-1,1-dioxo-2,3-dihydro-1λ^6,5-benzothiazepin-4-one] | 200 % activation | 82.1 nM | – | 88% | 160 nM | – | – |
| – | – | 97.7 nM | N[C@H]1CS(=O)(=O)c2cc(F)c(-c3nnc(N4CCOCC4)o3)cc2N(Cc2ccc(Cl)cc2)C1=O [Example 454, (3R)-3-amino-5-[(4-chlorophenyl)methyl]-8-fluoro-7-(5-morpholino-1,3,4-oxadiazol-2-yl)-1,1-dioxo-2,3-dihydro-1λ^6,5-benzothiazepin-4-one] | – | – | 129% | 100% | 70 nM | 309 nM | – |
| – | – | 225 nM | N[C@H]1CS(=O)(=O)c2cc(F)c(-c3nnc(NC4CCCC4)o3)cc2N(Cc2ccc(Cl)cc2)C1=O [Example 455, (3R)-3-amino-5-[(4-chlorophenyl)methyl]-7-[5-(cyclopentylamino)-1,3,4-oxadiazol-2-yl]-8-fluoro-1,1-dioxo-2,3-dihydro-1λ^6,5-benzothiazepin-4-one] | – | – | 115% | 91% | 370 nM | 339 nM | – |
| – | – | 607 nM | N[C@H]1CS(=O)(=O)c2cc(F)c(-c3nnc(NC4CCC(F)(F)C4)o3)cc2N(Cc2ccc(Cl)cc2)C1=O (stereo partly drawn) [Example 456, (3R)-3-amino-5-[(4-chlorophenyl)methyl]-7-[5-[(3,3-difluorocyclopentyl)amino]-1,3,4-oxadiazol-2-yl]-8-fluoro-1,1-dioxo-2,3-dihydro-1λ^6,5-benzothiazepin-4-one] | – | – | 99% | 94% | 770 nM | 1260 nM | – |
| – | – | 543 nM | N[C@H]1CS(=O)(=O)c2cc(F)c(-c3nnc(NC4CCC(F)(F)CC4)o3)cc2N(Cc2ccc(Cl)cc2)C1=O [Example 458, (3R)-3-amino-5-[(4-chlorophenyl)methyl]-7-[5-[(4,4-difluorocyclohexyl)amino]-1,3,4-oxadiazol-2-yl]-8-fluoro-1,1-dioxo-2,3-dihydro-1λ^6,5-benzothiazepin-4-one] | – | – | 116% | 95% | 590 nM | 491 nM | – |
| – | – | 455 nM | CC1(Nc2nnc(-c3cc4c(cc3F)S(=O)(=O)C[C@H](N)C(=O)N4Cc3ccc(Cl)cc3)o2)CC(F)(F)C1 [Example 461, (3R)-3-amino-5-[(4-chlorophenyl)methyl]-7-[5-[(3,3-difluoro-1-methyl-cyclobutyl)amino]-1,3,4-oxadiazol-2-yl]-8-fluoro-1,1-dioxo-2,3-dihydro-1λ^6,5-benzothiazepin-4-one] | – | – | 106% | 91% | 310 nM | 395 nM | – |
| – | – | 986 nM | N[C@H]1CS(=O)(=O)c2cc(F)c(-c3nnc(NC4CC(F)(F)C4)o3)cc2N(Cc2ccc(Cl)cc2)C1=O [Example 462, (3R)-3-amino-5-[(4-chlorophenyl)methyl]-7-[5-[(3,3-difluorocyclobutyl)amino]-1,3,4-oxadiazol-2-yl]-8-fluoro-1,1-dioxo-2,3-dihydro-1λ^6,5-benzothiazepin-4-one] | – | – | 121% | 100% | 350 nM | 562 nM | – |
| – | – | 577 nM | N[C@H]1CS(=O)(=O)c2cc(F)c(-c3nnc(NC4CCCC(F)(F)C4)o3)cc2N(Cc2ccc(Cl)cc2)C1=O (stereo partly drawn) [Example 463, (3R)-3-amino-5-[(4-chlorophenyl)methyl]-7-[5-[(3,3-difluorocyclohexyl)amino]-1,3,4-oxadiazol-2-yl]-8-fluoro-1,1-dioxo-2,3-dihydro-λ^6,5-benzothiazepin-4-one] | – | – | 104% | 91% | 540 nM | 519 nM | – |
| – | – | 1130 nM | CC(C)Nc1nnc(-c2cc3c(cc2F)S(=O)(=O)C[C@H](N)C(=O)N3Cc2ccc(Cl)cc2)o1 [Example 464, (3R)-3-amino-5-[(4-chlorophenyl)methyl]-8-fluoro-7-[5-(isopropylamino)-1,3,4-oxadiazol-2-yl]-1,1-dioxo-2,3-dihydro-1λ^6,5-benzothiazepin-4-one] | – | – | 111% | 89% | 460 nM | 1040 nM | – |
| – | – | 254 nM | CC(C)(C)Nc1nnc(-c2cc3c(cc2F)S(=O)(=O)C[C@H](N)C(=O)N3Cc2ccc(Cl)cc2)o1 [Example 488, (3R)-3-amino-7-[5-(tert-butylamino)-1,3,4-oxadiazol-2-yl]-5-[(4-chlorophenyl)methyl]-8-fluoro-1,1-dioxo-2,3-dihydro-1λ^6,5-benzothiazepin-4-one] | – | – | 105% | 93% | 300 nM | 351 nM | – |
| – | – | 290 nM | CCc1nnn(-c2cc3c(cc2F)S(=O)(=O)C[C@H](N)C(=O)N3Cc2ccc(Cl)cc2)n1 [Example 509, (3R)-3-amino-5-[(4-chlorophenyl)methyl]-7-(5-ethyltetrazol-2-yl)-8-fluoro-1,1-dioxo-2,3-dihydro-1λ^6,5-benzothiazepin-4-one] | – | – | 122% | 94% | 190 nM | 158 nM | – |
